# Read-outs that look alike come from different tables or passages of the source.
# Key:
# [1] = tested on: LecA-FITC binding to human A549 cells; test: Inhibition of LecA-FITC adhesion to A549 cells by fluorescence microscopy; type: cell-based; conditions: concentrations tested 1-100 µM, 10 μM LecA-FITC, 4 °C, 30 min
# Description: LecA-mediated cell adhesion is crucial for the initial infection and host-cell invasion of P. aeruginosa. Therefore, compounds 1 and 2, a combination of 1+2 and the dual inhibitor 12 were assessed for their ability to inhibit LecA-binding to human A549 cells. 10 μM of LecA-FITC and different concentrations of the respective compounds were incubated at 4 °C for 30 min with confluent A549 cells.
# 10 min, facilitating the separation of bacterial cells from the supernatant. The latter was filtered through a 0.22 µm sterile filter and stored at –80 °C until further use. […]
# CO2. […] The plates were then incubated for an additional 30 min at 37 °C and then, the UV absorbance was measured using a PHERAstar microplate reader. The test samples were read at a wavelength of 550 nm, while the blank was read at 620 nm. At last, the data were statistically analyzed and presented graphically using GraphPad Prism 9 (Figure S4 and S5). […]
# have any negative effects. The plate was then incubated at 4 °C for 30 min and wells were washed 5 times with PBS prior to imaging via fluorescence microscopy.
# Fluorescence image acquisition, processing, and quantification
# Fluorescence images were captured using an inverted fluorescence microscope (Leica DMi8) equipped with a 20x objective (HC PL APO CS2 20x/0.75 IMM UV), an FITC filter cube (EX: […]
# A549 cells = test: Inhibition of LasB-dependent cytotoxicity of P. aeruginosa PAO1 culture supernatant on A549 cells (MTT); type: cell-based, human; conditions: 1 μM compound, 10% (v/v) PAO1 supernatant
# Description: Next, we set out to analyze the ability of the dual inhibitor 12 and the individual treatment or combination of galactoside 1 and thiol 2 to reduce LasB-dependent cytotoxicity from P. aeruginosa PAO1 culture supernatant on A549 cells. None of the investigated compounds influenced A549 cell viability at 100 μM in the absence of bacterial culture supernatant (Fig. S4 ^†). […]
# In vitro evaluation of 12 and a combination of 1 and 2 using P. aeruginosa culture supernatant and A549 cells in a cell viability assay
# The A549 cell line, derived from human lung adenocarcinoma, was grown in Dulbecco's Modified Eagle Medium (DMEM) supplemented with 10% Fetal Bovine Serum (FBS) and 1% penicillin-streptomycin. The cells were cultured following standard protocols for cell […]
# To prepare the bacterial culture supernatant, individual flasks containing 15 mL of lysogeny broth (LB) culture medium were inoculated with PAO1 or PAO1 ΔlasB strains. Culture flasks were placed on a shaker and incubated at 37 °C and 180 rpm overnight for 18 hours. Following incubation, the bacterial cultures were subjected to centrifugation at 4 °C and 5000 rpm for […]
# 10 min, facilitating the separation of bacterial cells from the supernatant. The latter was filtered through a 0.22 µm sterile filter and stored at –80 °C until further use.
# In a flat bottom 96-well plate (Corning™ Costar™), each well was seeded with 2.5–3.5*10 3 cells in 100 µL DMEM/FCS and then incubated at a temperature of 37 °C with 5% CO2 for 24 hours. Then, compounds 12 and 1 combined with 2 in concentrations of 100 µM, 10 µM, and 1 µM were mixed with 10% (v/v) of culture supernatant of P. aeruginosa PAO1 (DSM 22644, ATCC 15692) in DMEM/FCS. To minimize the potential negative effect of DMSO, the compound was initially dissolved in 99.9% DMSO, and a final assay concentration of 0.5% DMSO was applied. Additionally, the cells were exposed to 10% (v/v) PAO1 ΔlasB culture supernatant to analyze the effect caused by LasB, while DMEM/FCS without any treatment served as a control. The plates were then incubated at 37 °C with 5% CO2 for 24 hours before conducting the MTT assay.
# To assess cell viability, the medium in the well plates was aspirated and a single wash was performed using 100 µL of phosphate buffered saline, pH 7.4 (PBS). A solution of 5 mg MTT (3-(4,5-dimethylthiazol-2-yl)-2,5-diphenyl tetrazolium bromide) per mL PBS was prepared and diluted to a concentration of 10% (v/v) in DMEM/FCS. Subsequently, 100 µL of this MTT solution was added to each well, and the plates were incubated at 37 °C for 3 hours with 5%
# CO2. After incubation, the MTT solution was carefully removed, and the formazan crystals were dissolved by adding 150 µL of lysis solution (250 mL DMSO, 25 g SDS, and 1.25 mL AcOH) to each well. The plates were then incubated for an additional 30 min at 37 °C and then, the UV absorbance was measured using a PHERAstar microplate reader. The test samples were read at a wavelength of 550 nm, while the blank was read at 620 nm. At last, the data were statistically analyzed and presented graphically using GraphPad Prism 9 (Figure S4 and S5).
# Evaluation of compounds 1, 2 and 12 in inhibiting LecA adhesion to A549 cells via […]
# The A549 cell line were cultured following the protocols for cell maintenance described above.
# In a flat-bottom cell culture black 96-well plate (Greiner Bio-One, #Cat 655090) each well was seeded with 1*104 cells in 100 µL DMEM/FCS and subsequently, incubated overnight at 37 °C with 5% CO2. […]
# LasB [2] = molecular target: T1, LasB (Pseudomonas aeruginosa, UniProt Q02RJ6); test: FRET-based in vitro LasB inhibition (proteolysis) assay; type: biochemical, P. aeruginosa PA14
# T1 construct: P. aeruginosa PA14 culture supernatant; made in house; host or cells: native secreted enzyme purified from P. aeruginosa PA14 culture supernatant (not recombinant)
# T1 sequence (Q02RJ6 198-498): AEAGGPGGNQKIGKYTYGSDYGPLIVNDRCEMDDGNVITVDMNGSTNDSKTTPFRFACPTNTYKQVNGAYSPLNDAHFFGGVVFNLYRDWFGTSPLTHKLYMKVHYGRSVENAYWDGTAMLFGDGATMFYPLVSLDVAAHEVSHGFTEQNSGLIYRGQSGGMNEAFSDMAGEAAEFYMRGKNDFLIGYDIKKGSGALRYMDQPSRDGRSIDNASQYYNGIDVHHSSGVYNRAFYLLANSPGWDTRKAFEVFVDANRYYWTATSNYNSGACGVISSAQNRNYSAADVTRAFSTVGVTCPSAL
# Description: The LasB activity of the thiol derivatives 11, 12, 17, 18, 24 and 25 was tested using a functional FRET-based in vitro proteolysis assay (Fig. 4A). […]
# Expression and purification of LasB and LecA
# LecA was expressed recombinantly using E. coli pET25-pail, whereas LasB was isolated from P. aeruginosa PA14 culture supernatant as described previously. 1,2 […]
# In vitro inhibition assay for LasB
# The in vitro inhibition assay was performed as described previously,2 using purified LasB (final concentration 0.3 nM), the fluorogenic substrate 2-aminobenzoyl-Ala-Gly-Leu-Ala-4-nitrobenzylamide (purchased from Peptides International (Louisville, KY, USA) or Vivitide, LLC (Gardner, MA, USA), final concentration 150 µM)) in assay buffer (50 mM Tris, pH 7.2, 2.5 mM CaCl2, 0.075% Pluronic F-127, 5% DMSO). Fluorescence was measured using a CLARIOstar plate reader (BMG Labtech, Ortenberg, Germany). IC50 values were calculated using GraphPad Prism 8 (GraphPad Software, San Diego, CA, USA) from at least three independent experiments performed in duplicate.
# LecA = molecular target: T2, LecA (Pseudomonas aeruginosa, UniProt Q05097); test: Surface plasmon resonance direct LecA binding assay (immobilized LecA); parameters: species or system P. aeruginosa; conditions: for time to reach equilibrium binding with immobilized LecA / k a / k d: SPR; for k a / k d: immobilized LecA
# T2 construct: made in house; host or cells: E. coli (plasmid pET25-pail)
# T2 sequence (Q05097 whole entry): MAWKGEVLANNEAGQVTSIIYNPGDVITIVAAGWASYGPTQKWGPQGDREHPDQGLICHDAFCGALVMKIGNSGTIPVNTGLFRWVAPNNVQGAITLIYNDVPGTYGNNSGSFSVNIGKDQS
# Text: Therefore, we measured the LecA affinity of thiol derivatives 17, 18, 24 and 25 and disulfides 26a, 26b and 27 using surface plasmon resonance (SPR) with LecA covalently immobilized on a sensor chip via amide coupling (Fig. 5 and Table 1). […] Thiols 17, 18, 24 and 25 reached equilibrium binding within 60 s of interaction with immobilized LecA, followed by their dissociation with moderate off-rates. […] Due to the very small off-rates for 26a, 26b and 27, these values have been calculated based on the response at […] of the injected compound and monitoring their dissociation for 30 min (Fig. S2 ^†). The observed very tight binding to immobilized LecA required optimization of the protein surface regeneration procedure. Effective conditions were identified as one injection of 50 mm isopropyl β-D-thiogalactoside in the running buffer, followed by one injection of 20 mm EDTA disodium salt in water. The regenerated chip surface was controlled using an injection of 1 to ensure that the activity of LecA was maintained.
# Surface plasmon resonance direct LecA binding assay
# SPR experiments were performed on a Reichert 2-channel SPR SR7500DC (Reichert Technologies Life Sciences, Buffalo, NY, USA) at 25 °C. For LecA immobilization, the surface of a HC1000M sensor chip (XanTec bioanalytics GmbH, Düsseldorf, Germany) was preequilibrated with borate buffer (1 M NaCl, 0.1 M sodium borate pH 9.0), followed by activation of the polycarboxylate hydrogel with 0.2 M N-hydroxysuccinimide (NHS) and 0.4 M 1-ethyl-3-(3-dimethylaminopropyl)carbodiimide hydrochloride (EDC‧HCl) in MilliQ water in both channels for 240 s (flow rate 10 μL/min) until the binding response reached 1200 RU.
# Then, LecA (100 μg/mL) in 10 mM sodium acetate pH 3.6 was injected on the activated chip surface of one channel (injection time 420 s, flow rate 10 μL/min) and 6000 RU of LecA were immobilized. Unreacted NHS esters in both channels were blocked with 1 M ethanolamine hydrochloride in MilliQ water pH 8.5 (injection time 360 s, flow rate 10 μL/min).
# Test compound stock solutions were prepared in DMSO (20 mM stocks for monovalent LecA inhibitors, 20 µM stocks for divalent LecA inhibitors) and were subsequently diluted in 10 mM phosphate buffer (pH 7.4, 2.7 mM KCl, 137 mM NaCl, 100 μM CaCl2) to obtain solutions with […]
# Monovalent inhibitors 17, 18, 24 and 25 were injected for 120 s (flow rate 50 μL/min) at concentrations ranging from 0.39–100 µM. Divalent inhibitors 26a, 26b and 27 were injected for 120 s (flow rate 50 μL/min) at concentrations 50–350 nM. The chip surface was regenerated after each inhibitor injection by one injection of 50 mM IPTG in running buffer (10 mM phosphate buffer, pH 7.4, 2.7 mM KCl, 137 mM NaCl, 100 μM CaCl2, 2% DMSO) followed by one injection 20 mM EDTA disodium salt in MilliQ water, and then followed by three injections of the running buffer (injection time 120 s, flow rate 50 μL/min). 100 µM pNP-Gal (1) in running buffer was injected before each analyte to monitor and ensure chip regeneration and […]
# Affinity/equilibrium analysis was performed for 1 on the same chip. A stock solution of 1 (10 mM in PBS/CaCl2 buffer) was prepared, then diluted to the required concentrations in running buffer and injected at 1.56–400 µM (injection time 60 s, flow rate 50 μL/min) without regeneration steps. Data analysis was performed using TraceDrawer software (Ridgeview Instruments) using a 1:1 binding model to fit the experimental data. Spikes at the end of the injections were removed in TraceDrawer during the data analysis.
# LasB [3] = molecular target: T1, LasB; conditions: previously observed activities of reported inhibitors; cited from earlier work
Compound,inhibition of binding of LecA-FITC to A549 cells [1],A549 cell viability under PAO1 culture supernatant (A549 cells),IC50 (LasB [2]) [nM],Kd (LecA) [nM],time to reach equilibrium binding with immobilized LecA (LecA) [s],k a (LecA),k d (LecA),IC50 (LasB [3]) [nM]
"Cc1ccc(NC(=O)C(S)CC(C)C)cc1 (centres unmarked) [Compound 2, reference compound]",failed to do so,neither 1 nor 2 nor their combination had any effect,,,,,,
CC(C)C[C@@H](S)C(=O)Nc1ccc(S[C@@H]2O[C@H](CO)[C@H](O)[C@H](O)[C@H]2O)cc1 [Compound 18],,,510,630 ± 290,≤ 60,1.41 ± 0.47 ×10^4 M^−1 s^−1,82 ± 11 ×10^−4 s^−1,
O=C(Nc1ccc(S[C@@H]2O[C@H](CO)[C@H](O)[C@H](O)[C@H]2O)cc1)[C@@H](S)Cc1ccccc1 [Compound 24],,,220,840 ± 160,≤ 60,0.88 ± 0.23 ×10^4 M^−1 s^−1,72 ± 5 ×10^−4 s^−1,
CC(C)C[C@H](S)C(=O)Nc1ccc(S[C@@H]2O[C@H](CO)[C@H](O)[C@H](O)[C@H]2O)cc1 [Compound 25],,,770,1000 ± 590,≤ 60,0.90 ± 0.31 ×10^4 M^−1 s^−1,85 ± 2 ×10^−4 s^−1,
O=C(Nc1ccccc1)C(S)Cc1ccccc1 (centres unmarked) [Compound 3],,,,,,,,1200
O=C(Nc1ccc(S[C@@H]2O[C@H](CO)[C@H](O)[C@H](O)[C@H]2O)cc1)[C@H](S)Cc1ccccc1 [Compound 17],,,730,1300 ± 540,≤ 60,0.71 ± 0.14 ×10^4 M^−1 s^−1,86 ± 20 ×10^−4 s^−1,

# — publication PMC11339798, “Dual inhibitors of Pseudomonas aeruginosa virulence factors LecA and LasB” (Chemical Science, 2024)
